Measurements from the NIST ThermoML archive (doi:10.1021/je4000394).
± gives the expanded uncertainty stated by the source.

Tests used:
[1] = Liquid, Vibrating tube method
[2] = xn = mol fraction of the nth substance listed; conditions: Liquid; for mass density: Vibrating tube method; for viscosity: 325.2 K, Flow viscometer

CCCCCCCCCC [decane]
[1], 323.2 K
Conditions	mass density [kg/m3]
100 kPa	707 ± 0.3
1000 kPa	707.9 ± 0.4
2000 kPa	708.8 ± 0.4
3000 kPa	709.7 ± 0.4
4000 kPa	710.6 ± 0.4
5000 kPa	711.5 ± 0.4
6000 kPa	712.4 ± 0.4
7000 kPa	713.3 ± 0.4
8000 kPa	714.1 ± 0.4
9000 kPa	715 ± 0.4
10000 kPa	715.9 ± 0.4

CCCCCCCCCC [decane] + CCCCCCCCCCCCCCCCCC
[2], 323.2 K, x1 = 1
Conditions	mass density [kg/m3]
100 kPa	707 ± 0.3
1000 kPa	707.9 ± 0.4
2000 kPa	708.8 ± 0.4
3000 kPa	709.7 ± 0.4
4000 kPa	710.6 ± 0.4
5000 kPa	711.5 ± 0.4
6000 kPa	712.4 ± 0.4
7000 kPa	713.3 ± 0.4
8000 kPa	714.1 ± 0.4
9000 kPa	715 ± 0.4
10000 kPa	715.9 ± 0.4

CCCCCCCCCCCCCCCCCC [octadecane]
[1], 323 K
Conditions	mass density [kg/m3]
100 kPa	761.2 ± 0.4
1000 kPa	761.9 ± 0.4
2000 kPa	762.7 ± 0.4
3000 kPa	763.3 ± 0.4
4000 kPa	764 ± 0.4
5000 kPa	764.8 ± 0.4
6000 kPa	765.4 ± 0.4
7000 kPa	766 ± 0.4
8000 kPa	766.7 ± 0.4
9000 kPa	767.5 ± 0.4
10000 kPa	768.1 ± 0.4

CCCCCCCCCCCCCCCCCC [octadecane] + CCCCCCCCCC
mass density [kg/m3], [2]
Conditions	x2 = 0	x2 = 0.25	x2 = 0.5	x2 = 0.75
323 K, 100 kPa	761.2 ± 0.4	–	–	726.3 ± 0.4
323 K, 1000 kPa	761.9 ± 0.4	–	–	727.1 ± 0.4
323 K, 2000 kPa	762.7 ± 0.4	–	–	728 ± 0.4
323 K, 3000 kPa	763.3 ± 0.4	–	–	728.8 ± 0.4
323 K, 4000 kPa	764 ± 0.4	–	–	729.6 ± 0.4
323 K, 5000 kPa	764.8 ± 0.4	–	–	730.4 ± 0.4
323 K, 6000 kPa	765.4 ± 0.4	–	–	731.2 ± 0.4
323 K, 7000 kPa	766 ± 0.4	–	–	732.1 ± 0.4
323 K, 8000 kPa	766.7 ± 0.4	–	–	732.9 ± 0.4
323 K, 9000 kPa	767.5 ± 0.4	–	–	733.7 ± 0.4
323 K, 10000 kPa	768.1 ± 0.4	–	–	734.5 ± 0.4
323.1 K, 100 kPa	–	752.2 ± 0.4	740.8 ± 0.4	–
323.1 K, 1000 kPa	–	752.9 ± 0.4	741.6 ± 0.4	–
323.1 K, 2000 kPa	–	753.7 ± 0.4	742.4 ± 0.4	–
323.1 K, 3000 kPa	–	754.5 ± 0.4	743.1 ± 0.4	–
323.1 K, 4000 kPa	–	755.2 ± 0.4	743.9 ± 0.4	–
323.1 K, 5000 kPa	–	755.9 ± 0.4	744.7 ± 0.4	–
323.1 K, 6000 kPa	–	756.7 ± 0.4	745.5 ± 0.4	–
323.1 K, 7000 kPa	–	757.3 ± 0.4	746.2 ± 0.4	–
323.1 K, 8000 kPa	–	758.1 ± 0.4	747 ± 0.4	–
323.1 K, 9000 kPa	–	758.8 ± 0.4	747.8 ± 0.4	–
323.1 K, 10000 kPa	–	759.6 ± 0.4	748.6 ± 0.4	–

[2], 100 kPa
Conditions	viscosity [mPa·s]
x1 = 0.25	0.883 ± 0.07
x1 = 0.5	1.31 ± 0.12
x1 = 0.75	1.702 ± 0.14
